Results as given in patent publication US20100222349A1, “QUINOLINE DERIVATIVES USED TO TREAT INFLAMMATORY AND ALLERGIC DISEASES” (Glaxo Group Limited, priority 2007, published 2010).

Columns and labels:
human H1 receptor = molecular target: T1, human H1 receptor (Homo sapiens, UniProt P35367); experiment: Histamine H1 functional antagonist assay: determination of functional pKi values (FLIPR); type: cell-based; conditions: CHO cells expressing human H1 receptor, histamine at EC80, read-out: average pKi (pKb) at H1 (converted)
T1 construct: expressed in transfected cells
T1 sequence (P35367 whole entry): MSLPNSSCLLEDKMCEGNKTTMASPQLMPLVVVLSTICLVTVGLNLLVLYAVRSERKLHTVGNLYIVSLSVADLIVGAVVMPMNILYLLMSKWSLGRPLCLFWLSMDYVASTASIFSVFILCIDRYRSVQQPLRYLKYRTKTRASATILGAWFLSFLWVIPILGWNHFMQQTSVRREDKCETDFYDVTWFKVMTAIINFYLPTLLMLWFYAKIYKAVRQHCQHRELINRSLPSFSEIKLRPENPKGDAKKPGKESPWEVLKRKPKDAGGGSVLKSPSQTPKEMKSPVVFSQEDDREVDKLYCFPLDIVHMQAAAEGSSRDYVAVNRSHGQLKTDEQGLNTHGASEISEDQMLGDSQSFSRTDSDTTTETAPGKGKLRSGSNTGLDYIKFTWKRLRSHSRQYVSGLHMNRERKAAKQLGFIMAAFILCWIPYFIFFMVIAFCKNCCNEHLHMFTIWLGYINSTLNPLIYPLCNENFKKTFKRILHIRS
Experimental: The human H1 receptor is cloned using known procedures described in the literature [Biochem. Biophys. Res. Commun., 201(2):894 (1994)]. Chinese hamster ovary (CHO) cells stably expressing the human H1 receptor are generated according to known procedures described in the literature [Br. J. Pharmacol., 117(6):1071 (1996)]. The histamine H1 cell line is seeded into non-coated black-walled clear bottom 384-well tissue culture plates in alpha minimum essential medium (Gibco/Invitrogen, cat no. 22561-021), supplemented with 10′)/0 dialysed foetal calf serum (Gibco/Invitrogen cat no. 12480-021) and 2 mM L-glutamine (Gibco/Invitrogen cat no 25030-024) and is maintained overnight at 5% CO2, 37° C. Excess medium is removed from each well to leave 10 μl. 30 μl loading dye (250 μM Brilliant Black, 2 μM Fluo-4 diluted in Tyrodes buffer+probenecid (145 mM NaCl, 2.5 mM KCl, 10 mM HEPES, 10 mM D-glucose, 1.2 mM MgCl2, 1.5 mM CaCl2, 2.5 mM probenecid, pH adjusted to 7.40 with NaOH 1.0 M)) is added to each well and the plates are incubated for 60 min at 5% CO2, 37° C. 10 μl of test compound, diluted to the required concentration in Tyrodes buffer+probenecid (or 10 μl Tyrodes buffer+probenecid as a control) is added to each well and the plate is incubated for 30 min at 37° C., 5% CO2. The plates are then placed into a FLIPR™(Molecular Devices, UK) to monitor cell fluorescence (λex=488 nm, λEM=540 nm) in the manner described in Sullivan et al., (In: Lambert DG (ed.), Calcium Signaling Protocols, New Jersey: Humana Press, 1999, 125-136) before and after the addition of 10 μl histamine at a concentration that results in the final assay concentration of histamine being EC80. Functional antagonism is indicated by a suppression of histamine induced increase in fluorescence, as measured by the FLIPR™ system (Molecular Devices). By means of concentration effect curves, functional affinities are determined using standard pharmacological mathematical analysis.

histamine H3 receptor = molecular target: T2, histamine H3 receptor (Homo sapiens, UniProt Q9Y5N1); experiment: Histamine H3 functional antagonist assay (GTPγS, membranes); type: biochemical; conditions: CHO K1 membranes, [35S]-GTPγS, histamine at EC80; read-out: average pKi (pKb) at H3 (converted)
T2 construct: expressed in transfected cells; host or cells: CHO K1 cells with pSwitch/pGeneH3 (GeneSwitch, mifepristone-induced), clone 3H3; membrane preparation
T2 sequence (Q9Y5N1 whole entry, species assumed): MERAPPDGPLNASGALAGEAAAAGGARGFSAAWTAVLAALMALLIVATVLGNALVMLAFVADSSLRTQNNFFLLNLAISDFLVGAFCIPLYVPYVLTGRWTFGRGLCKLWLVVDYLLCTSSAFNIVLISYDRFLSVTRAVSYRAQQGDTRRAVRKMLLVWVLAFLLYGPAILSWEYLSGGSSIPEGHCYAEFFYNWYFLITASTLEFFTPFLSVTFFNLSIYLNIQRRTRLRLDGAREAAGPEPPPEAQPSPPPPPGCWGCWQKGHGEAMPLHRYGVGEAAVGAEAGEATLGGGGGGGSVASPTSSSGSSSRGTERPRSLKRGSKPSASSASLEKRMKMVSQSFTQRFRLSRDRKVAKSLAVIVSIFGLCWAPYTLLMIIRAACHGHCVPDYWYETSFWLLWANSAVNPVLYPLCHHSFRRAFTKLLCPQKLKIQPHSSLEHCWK
Experimental: The histamine H3 cDNA is isolated from its holding vector, pcDNA3.1 TOPO (InVitrogen), by restriction digestion of plasmid DNA with the enzymes BamH1 and Not-1 and is ligated into the inducible expression vector pGene (InVitrogen) digested with the same enzymes. The GeneSwitchTM system (a system where in transgene expression is switched off in the absence of an inducer and switched on in the presence of an inducer) is performed as described in U.S. Pat. Nos. 5,364,791; 5,874,534; and 5,935,934. Ligated DNA is transformed into competent DH5α E. coli host bacterial cells and is plated onto Luria Broth (LB) agar containing ZeocinTM (an antibiotic which allows the selection of cells expressing the sh ble gene which is present on pGene and pSwitch) at 50 μgml^-1. Colonies containing the re-ligated plasmid are identified by restriction analysis. DNA for transfection into mammalian cells is prepared from 250 ml cultures of the host bacterium containing the […]3 plasmid and is isolated using a DNA preparation kit (Qiagen Midi-Prep) as per manufacturers guidelines (Qiagen). CHO K1 cells previously transfected with the pSwitch regulatory plasmid (InVitrogen) are seeded at 2×10^6 cells per T75 flask in Complete Medium, containing Hams F12 (GIBCOBRL, Life Technologies) medium supplemented with 10% v/v dialysed foetal bovine serum, L-glutamine, and hygromycin (100 μgml^-1), 24 h prior to use. Plasmid DNA is transfected into the cells using Lipofectamine plus according to the manufacturer's guidelines (InVitrogen). 48 h post transfection, cells are placed into complete medium supplemented with 500 μgml^-1 ZeocinTM. 10-14 days post selection, 10 nM Mifepristone (InVitrogen) is added to the culture medium to induce the expression of the receptor. 18 h post induction, cells are detached from the flask using ethylenediamine tetra-acetic acid (EDTA; 1:5000; InVitrogen), following several washes with PBS, pH 7.4 and are resuspended in Sorting Medium containing Minimum Essential Medium (MEM), without phenol red, and are supplemented with Earles salts and 3% Foetal Clone II (Hyclone). Approximately 1×10^7 cells are examined for receptor expression by staining with a rabbit polyclonal antibody, 4a, raised against the N-terminal domain of the histamine H3 receptor, are incubated on ice for 60 min, followed by two washes in sorting medium. Receptor bound antibody is detected by incubation of the cells for 60 min on ice with a goat anti rabbit antibody, conjugated with Alexa 488 fluorescence marker (Molecular Probes). Following two further washes with Sorting Medium, cells are filtered through a 50 μm FilconTM (BD Biosciences) and then are analysed on a FACS Vantage SE Flow Cytometer fitted with an Automatic Cell Deposition Unit. Control cells are non-induced cells treated in an analogous manner. Positively stained cells are sorted as single cells into 96-well plates, containing Complete Medium containing 500 μgml^-1 ZeocinTM and are allowed to expand before reanalysis for receptor expression via antibody and ligand binding studies. One clone, 3H3, is selected for membrane preparation. All steps of the protocol are carried out at 4° C. and with pre-cooled reagents. The cell pellet is resuspended in 10 volumes of homogenisation buffer (50 mM N-2-hydroxyethylpiperazine-N'-2-ethanesulfonic acid (HEPES), 1 mM ethylenediamine tetra-acetic acid (EDTA), pH 7.4 with KOH, supplemented with 10^-6 M leupeptin (acetyl-leucyl-leucyl-arginal; Sigma L2884), 25 μgml^-1 bacitracin (Sigma B0125), 1 mM phenylmethylsulfonyl fluoride (PMSF) and 2×10^-6 M pepstain A (Sigma)). The cells are then homogenised by 2×15 sec bursts in a 1 L glass Waring blender, followed by centrifugation at 500 g for 20 min. The supernatant is then spun at 48,000 g for 30 min. The pellet is resuspended in homogenisation buffer (4× the volume of the original cell pellet) by vortexing for 5 sec, followed by homogenisation in a Dounce homogeniser (10-15 strokes). […]

Ki (human H1 receptor) | Ki (histamine H3 receptor) | Compound
< 100 nM | > 316 nM | CCCCc1cc(OC2CCN(C[C@H]3CC[C@H](C(=O)NC(C)C)CC3)CC2)c2ncccc2c1 [Example 42, Trans-4-({4-[(6-butyl-8-quinolinyl)oxy]-1-piperidinyl}methyl)-N-(1-methylethyl)cyclohexanecarboxamide]
< 100 nM | > 3160 nM | CCCCc1cc(OC2CCN(CCC(=O)NCC)CC2)c2ncccc2c1 [Example 15, 3-{4-[(6-butyl-8-quinolinyl)oxy]-1-piperidinyl}-N-ethylpropanamide]
< 10 nM | > 316 nM | CCCCc1cc(OC2CCN(CCCCCNC(=O)CC)CC2)c2ncccc2c1 [Example 77, N-(5-{4-[(6-butyl-8-quinolinyl)oxy]-1-piperidinyl}pentyl) propanamide]
< 10 nM | > 316 nM | CCCCCc1cc(OC2CCN(CCCNC(=O)CC)CC2)c2ncccc2c1 [Example 90, N-(3-{4-[(6-Pentyl-8-quinolinyl)oxy]-1-piperidinyl}propyl)propanamide]
< 100 nM | > 3160 nM | CCCCc1cc(OC2CCN(CC(=O)NCCOC)CC2)c2ncccc2c1 [Example 11, 2-{4-[(6-butyl-8-quinolinyl)oxy]-1-piperidinyl}-N-[2-(methyloxy)ethyl] acetamide]
< 100 nM | > 3160 nM | CCCCc1cc(OC2CCN(CC(=O)NC(C)C)CC2)c2ncccc2c1 [Example 14, 2-{4-[(6-butyl-8-quinolinyl)oxy]-1-piperidinyl}-N-(1-methylethyl)acetamide]
< 100 nM | > 3160 nM | CCCCc1cc(OC2CCN(CCCCC(=O)NCCCOC)CC2)c2ncccc2c1 [Example 26, 5-{4-[(6-butyl-8-quinolinyl)oxy]-1-piperidinyl}-N-[3-(methyloxy)propyl]pent-anamide]
< 100 nM | > 3160 nM | CCCCc1cc(OC2CCN(CC(=O)N3CCCCC3)CC2)c2ncccc2c1 [Example 13, 6-butyl-8-({1-[2-oxo-2-(1-piperidinyl)ethyl]-4-piperidinyl}oxy) quinoline]
< 10 nM | > 316 nM | CCCCc1cc(OC2CCN(CCCCNC(=O)CC)CC2)c2ncccc2c1 [Example 64, N-(4-{4-[(6-Butyl-8-quinolinyl)oxy]-1-piperidinyl}butyl)propanamide]
< 100 nM | > 316 nM | CCCCc1cc(OC2CCN(CC3CCN(C(=O)CC)CC3)CC2)c2ncccc2c1 [Example 2, 6-Butyl-8-({1-[(1-propanoyl-4-piperidinyl)methyl]-4-piperidinyl}oxy)quinoline]
< 10 nM | > 316 nM | CCCCc1cc(OC2CCN(CCCCCNC(=O)C3CCCCC3)CC2)c2ncccc2c1 [Example 78, N-(5-{4-[(6-butyl-8-quinolinyl)oxy]-1-piperidinyl}pentyl) cyclohexane carboxamide]
< 100 nM | > 316 nM | CCCCCCc1cc(OC2CCN(C[C@H]3CC[C@H](C(=O)N4CCCCC4)CC3)CC2)c2ncccc2c1 [Example 51, 6-hexyl-8-[(1-{[trans-4-(1-piperidinylcarbonyl)cyclohexyl]methyl}-4-piperidinyl)oxy]quinoline]
< 10 nM | > 3160 nM | CCCCc1cc(OC2CCN(CCCCC(=O)N(CC)CC)CC2)c2ncccc2c1 [Example 27, 5-{4-[(6-butyl-8-quinolinyl)oxy]-1-piperidinyl}-N,N-diethylpentanamide]
< 10 nM | > 316 nM | CCCCc1cc(OC2CCN(CCCNC(=O)C(C)(C)C)CC2)c2ncccc2c1 [Example 69, N-(3-{4-[(6-butyl-8-quinolinyl)oxy]-1-piperidinyl}propyl)-2,2-dimethyl propanamide]
< 10 nM | > 316 nM | CCCCc1cc(O[C@@H]2CCN(CCCC(=O)NC(C)(C)C)C2)c2ncccc2c1 [Example 37, 4-{(3R)-3-[(6-butyl-8-quinolinyl)oxy]-1-pyrrolidinyl}-N-(1,1-dimethylethyl) butanamide]
< 100 nM | > 316 nM | CCCCc1cc(OC2CCN(CCCCNC(=O)C(C)C)CC2)c2ncccc2c1 [Example 66, N-(4-{4-[(6-butyl-8-quinolinyl)oxy]-1-piperidinyl}butyl)-2-methylpropanamide]
< 100 nM | > 316 nM | CCCCCCc1cc(OC2CCN(C[C@H]3CC[C@H](C(=O)N4CCOCC4)CC3)CC2)c2ncccc2c1 [Example 57, 6-hexyl-8-[(1-{[trans-4-(4-morpholinylcarbonyl)cyclohexyl]methyl}-4-piperidinyl)oxy]quinoline]
< 10 nM | > 316 nM | CCCCc1cc(O[C@@H]2CCN(CCC(=O)NC(C)(C)C)C2)c2ncccc2c1 [Example 36, 3-{(3R)-3-[(6-butyl-8-quinolinyl)oxy]-1-pyrrolidinyl}-N-(1,1-dimethylethyl) propanamide]
< 100 nM | > 316 nM | CCCCCc1cc(OC2CCN(CCCC(=O)N(CC)CC)CC2)c2ncccc2c1 [Example 89, N,N-Diethyl-4-{4-[(6-pentyl-8-quinolinyl)oxy]-1-piperidinyl}butanamide]
< 10 nM | > 316 nM | CCCCc1cc(OC2CCN(CCNC(=O)C3CCCCC3)CC2)c2ncccc2c1 [Example 75, N-(2-{4-[(6-butyl-8-quinolinyl)oxy]-1-piperidinyl}ethyl) cyclohexane carboxamide]
< 100 nM | > 316 nM | CCCCc1cc(OC2CCN(C[C@H]3CC[C@H](C(=O)N4CCOCC4)CC3)CC2)c2ncccc2c1 [Example 63, 6-butyl-8-[(1-{[trans-4-(4-morpholinylcarbonyl)cyclohexyl]methyl}-4-piperidinyl)oxy]quinoline]
< 10 nM | > 3160 nM | CCCCc1cc(OC2CCN(CCC(=O)NCCCOC)CC2)c2ncccc2c1 [Example 16, 3-{4-[(6-butyl-8-quinolinyl)oxy]-1-piperidinyl}-N-[3-(methyloxy)propyl] propanamide]
